Key:
[1] = system: IL-2 production in Jurkat human T lymphocyte cells; assay: IL-2 production assay for activity of compounds incubated with human serum; details: for bioactivity in IL-2 inhibition assays (in words): FIGS. 4-5; for IL-2 pg/mL at given concentration (nM): Table 8, Jurkat cells
Method: Several compounds of formula I were analyzed for their capacity to inhibit IL-2 production in Jurkat human T lymphocyte cells, after incubation with pooled human serum for 48 hours at 37° C. (see Example 20). An ester prodrug, triptolide-14-succinate, designated PG490-88, was included for comparison.
The IC50 values (column 1) are calculated directly from the data in each experiment. The % conversion values (column 2) are calculated as the percent of the IC50 value produced by triptolide, designated PG490, incubated in the same plasma (i.e. in the same experiment).
A. IL-2 production assay for activity of compounds incubated with human serum. Test samples were diluted to 1 mM in complete tissue culture medium. […] Cells from an exponentially expanding culture of the Jurkat human T lymphocyte cell line (#TIB-152 obtained from American Type Culture Collection, Manassas, Va.) were harvested, washed once by centrifugation and dilution in complete tissue culture medium, and diluted to a concentration of 2×10^6 cells/ml. A volume of 50 μl of Jurkat cells (1×10^5 cells) was added to wells containing 100 μl of the diluted compounds, 50 μl of PMA (10 ng/ml) was added to each well, and the plates were incubated at 37° C. in a 5% CO2 incubator. After 24 hours, the plates were centrifuged to pellet the cells, 150 μl of supernatant was removed from each well, and the samples were stored at −20° C. The stored supernatants were analyzed for human IL-2 concentration using the Luminex 100 (Luminex Corporation, Austin, Tex.), Luminex microspheres coupled with anti-IL-2 capture antibody, and fluorochrome-coupled anti-IL-2 detection antibody. The data were expressed as ng/ml of IL-2.
(§1) B. Comparison of bioactivities after incubation of compounds in human serum. The data were plotted as the concentration of compound incubated in serum versus IL-2 concentration. The concentration of compound inducing a 50% decrease in the IL-2 concentration (IC50) was calculated from these dose response curves. […] This percentage conversion was used to compare the bioactivity of various compounds after incubation in human serum.

[2] = system: Jurkat human T lymphocyte cell line; assay: Apoptosis assay (Annexin V) of compounds incubated with human serum
Method: Compounds of formula I, as shown in Table 1 above and in the Examples, were assayed for their capacity to induce apoptosis in cells from the Jurkat human T lymphocyte cell line, after incubation with pooled human serum for varying periods of time at 37° C. (see Example 19). An ester prodrug, triptolide-14-succinate, designated PG490-88, was included for comparison. The extent of conversion to triptolide after such incubation was also independently determined by HPLC analysis.
The ED50 values (column 3) are calculated directly from the data in each experiment, and the % conversion values (column 4) are calculated as percent of the ED50 value produced by triptolide, designated PG490, incubated in the same plasma (i.e. in the same experiment).
A. Incubation of compounds with human serum. Pooled human serum was stored in aliquots at −80° C. Test compounds were added at 20 mM to thawed human serum in 1.5 ml microfuge tubes and incubated at 37° C. in a water bath for varying periods of time. The test samples were placed on ice until dilution for the bioassay. Controls consisted of the compounds incubated in complete tissue culture medium (RPMI 1640 medium plus 5% heat-inactivated fetal calf serum, 1% HEPES, 1% pen/strep, 1% glutamine) rather than human serum.
B. Apoptosis assay of compounds incubated with human serum. Test samples were diluted to 1 mM in complete tissue culture medium. Aliquots were placed in microculture plates and serial dilutions were prepared so that the final concentration would encompass the range of 1 to 10,000 nM with half-log increments. Cells from an exponentially expanding culture of the Jurkat human T lymphocyte cell line (#TIB-152 obtained from American Type Culture Collection, Manassas, Va.) were harvested, washed once by centrifugation and dilution in complete tissue culture medium, and diluted to a concentration of 1×10^6 cells/ml. A volume of 100 μl of Jurkat cells (1×10^5 cells) was added to wells containing 100 μl of the diluted compounds, and the plates were incubated at 37° C. in a 5% CO2 incubator. After 24 hours, the plates were centrifuged to pellet the cells, and the cells were washed twice with 2% heat-inactivated fetal calf serum in PBS. To each well, 500 ul of binding buffer was added according to the Annexin V assay procedure (BioVision, Inc., Mountain View, Calif.). Next, 5 μl of the fluorescein isothiocyanate (FITC) conjugate of Annexin V (BioVision, Inc.) was added to each well, followed by 5 minutes of incubation in the dark. In some assays, propidium iodide (BioVision, Inc.) was added at this stage to check for necrotic cells. The contents of the wells were individually transferred into test tubes, and apoptosis was analyzed using a FACSCalibur flow cytometer (BD Immunocytometry Systems, San Jose, Calif.). Cells positive for Annexin V binding were considered to be apoptotic, and the data were calculated as percent apoptotic cells.
as §1, with “C.” for “B.”, “percent apoptotic cells.” for “IL-2 concentration.”, “inducing” for “inducing a”, “apoptosis (ED50)” for “decrease in the IL-2 concentration (IC50)”

[3] = Table 4, serum, 48 hr, 10000 nM

CC(C)[C@]12O[C@H]1[C@@H]1O[C@]13[C@]1(O[C@H]1C[C@H]1C4=C(CC[C@@]13C)C(=O)OC4)[C@@H]2OC(=O)CCC(N)C(=O)O (stereo partly shown) [PG661, 14-isoglutamyl ester, reference compound]
bioactivity in IL-2 inhibition assays (in words) [1]: little or no activity
IL-2 pg/mL at given concentration (nM) ([1]; 0.0001 nM): 82.0 pg/mL
IL-2 pg/mL at given concentration (nM) ([1]; 0.001 nM): 102.1 pg/mL
IL-2 pg/mL at given concentration (nM) ([1]; 0.01 nM): 123.6 pg/mL
IL-2 pg/mL at given concentration (nM) ([1]; 0.1 nM): 120.7 pg/mL
IL-2 pg/mL at given concentration (nM) ([1]; 1 nM): 98.2 pg/mL
IL-2 pg/mL at given concentration (nM) ([1]; 10 nM): 110.3 pg/mL
IL-2 pg/mL at given concentration (nM) ([1]; 100 nM): 103.6 pg/mL
IL-2 pg/mL at given concentration (nM) ([1]; 1000 nM): 74.4 pg/mL
IL-2 pg/mL at given concentration (nM) ([1]; 10000 nM): 68.7 pg/mL
% apoptotic cells at given concentration (nM) ([2]; Table 3, human serum, 0 hr, 10000 nM): 7.9%
% apoptotic cells at given concentration (nM) ([2]; Table 3, human serum, 48 hr, 1 nM): 11.3%
% apoptotic cells at given concentration (nM) ([2]; Table 3, human serum, 48 hr, 3 nM): 10.4%
% apoptotic cells at given concentration (nM) ([2]; Table 3, human serum, 48 hr, 10 nM): 10.3%
% apoptotic cells at given concentration (nM) ([2]; Table 3, human serum, 48 hr, 30 nM): 10.5%
% apoptotic cells at given concentration (nM) ([2]; Table 3, human serum, 48 hr, 100 nM): 10.3%
% apoptotic cells at given concentration (nM) ([2]; Table 3, human serum, 48 hr, 300 nM): 10.5%
% apoptotic cells at given concentration (nM) ([2]; Table 3, human serum, 48 hr, 1000 nM): 10.2%
% apoptotic cells at given concentration (nM) ([2]; Table 3, human serum, 48 hr, 3000 nM): 9.7%
% apoptotic cells at given concentration (nM) ([2]; Table 3, human serum, 48 hr, 10000 nM): 9.4%
% apoptotic cells at given concentration (nM) ([2]; Table 3, medium only, 10000 nM): 13.6%
% apoptotic cells at given concentration (nM) ([2]; Table 4, medium, 10000 nM): 7.3%
% apoptotic cells at given concentration (nM) ([2]; Table 4, serum, 0 hr, 10000 nM): 5.2%
% apoptotic cells at given concentration (nM) ([2]; Table 4, serum, 48 hr, 0.03 nM): 38.8%
% apoptotic cells at given concentration (nM) ([2]; Table 4, serum, 48 hr, 0.1 nM): 38.2%
% apoptotic cells at given concentration (nM) ([2]; Table 4, serum, 48 hr, 0.3 nM): 39.0%
% apoptotic cells at given concentration (nM) ([2]; Table 4, serum, 48 hr, 1 nM): 39.2%
% apoptotic cells at given concentration (nM) ([2]; Table 4, serum, 48 hr, 3 nM): 39.1%
% apoptotic cells at given concentration (nM) ([2]; Table 4, serum, 48 hr, 10 nM): 39.2%
% apoptotic cells at given concentration (nM) ([2]; Table 4, serum, 48 hr, 30 nM): 40.3%
% apoptotic cells at given concentration (nM) ([2]; Table 4, serum, 48 hr, 100 nM): 38.6%
% apoptotic cells at given concentration (nM) ([2]; Table 4, serum, 48 hr, 300 nM): 36.3%
% apoptotic cells at given concentration (nM) ([2]; Table 4, serum, 48 hr, 1000 nM): 28.7%
% apoptotic cells at given concentration (nM) ([2]; Table 4, serum, 48 hr, 3000 nM): 28.2%
% apoptotic cells at given concentration (nM) [2, 3]: 5.2%
apoptotic activity (in words) ([2]; after 48 hr. incubation in human serum): essentially no activity

CC(C)[C@]12O[C@H]1[C@@H]1O[C@]13[C@]1(O[C@H]1C[C@H]1C4=C(CC[C@@]13C)C(=O)OC4)[C@@H]2OC(=O)Nc1ccccc1 [PG671, Triptolide 14-Phenyl Carbamate]
bioactivity in IL-2 inhibition assays (in words) [1]: some level of bioactivity
IL-2 pg/mL at given concentration (nM) ([1]; 0.0001 nM): 96.4 pg/mL
IL-2 pg/mL at given concentration (nM) ([1]; 0.001 nM): 102.7 pg/mL
IL-2 pg/mL at given concentration (nM) ([1]; 0.01 nM): 99.7 pg/mL
IL-2 pg/mL at given concentration (nM) ([1]; 0.1 nM): 114.7 pg/mL
IL-2 pg/mL at given concentration (nM) ([1]; 1 nM): 106.1 pg/mL
IL-2 pg/mL at given concentration (nM) ([1]; 10 nM): 90.7 pg/mL
IL-2 pg/mL at given concentration (nM) ([1]; 100 nM): 77.9 pg/mL
IL-2 pg/mL at given concentration (nM) ([1]; 1000 nM): 48.7 pg/mL
IL-2 pg/mL at given concentration (nM) ([1]; 10000 nM): 8.8 pg/mL
conversion in human serum (in words) [2]: less readily converted
% apoptotic cells at given concentration (nM) ([2]; Table 4, medium, 10000 nM): 13.7%
% apoptotic cells at given concentration (nM) ([2]; Table 4, serum, 0 hr, 10000 nM): 10.2%
% apoptotic cells at given concentration (nM) ([2]; Table 4, serum, 48 hr, 0.03 nM): 42.5%
% apoptotic cells at given concentration (nM) ([2]; Table 4, serum, 48 hr, 0.1 nM): 43.3%
% apoptotic cells at given concentration (nM) ([2]; Table 4, serum, 48 hr, 0.3 nM): 43.9%
% apoptotic cells at given concentration (nM) ([2]; Table 4, serum, 48 hr, 1 nM): 44.2%
% apoptotic cells at given concentration (nM) ([2]; Table 4, serum, 48 hr, 3 nM): 43.2%
% apoptotic cells at given concentration (nM) ([2]; Table 4, serum, 48 hr, 10 nM): 42.4%
% apoptotic cells at given concentration (nM) ([2]; Table 4, serum, 48 hr, 30 nM): 44.7%
% apoptotic cells at given concentration (nM) ([2]; Table 4, serum, 48 hr, 100 nM): 43.5%
% apoptotic cells at given concentration (nM) ([2]; Table 4, serum, 48 hr, 300 nM): 43.1%
% apoptotic cells at given concentration (nM) ([2]; Table 4, serum, 48 hr, 1000 nM): 43.0%
% apoptotic cells at given concentration (nM) ([2]; Table 4, serum, 48 hr, 3000 nM): 43.3%
% apoptotic cells at given concentration (nM) [2, 3]: 15.4%

— patent US20110076293A1, “TRIPTOLIDE DERIVATIVES FOR MODULATION OF APOPTOSIS AND IMMUNOSUPPRESSION” (priority 2002, published 2011)
